# Laboratory results from ChEMBL document CHEMBL1133977, “Robinlin: a novel bioactive homo-monoterpene from Robinia pseudoacacia L. (Fabaceae)” (Bioorg Med Chem Lett, 2001).
# Columns and labels:
# A549 = test: In vitro cytotoxic activity against A-549 (human lung carcinoma) cell line; assay type: functional; details: read-out: ED50 (the source's name)
# HT-29 = test: In vitro cytotoxic activity against HT-29 (human colon adenocarcinoma) cell line; assay type: functional; details: read-out: ED50 (the source's name)
# MIA PaCa-2 = test: In vitro cytotoxic activity against PACA-2 (human pancreatic carcinoma) cell line; assay type: functional; details: read-out: ED50 (the source's name)
# MCF7 = test: In vitro cytotoxic activity against MCF-7 (human breast carcinoma) cell line; assay type: functional; details: read-out: ED50 (the source's name)
# PC-3 = test: In vitro cytotoxic activity against PC-3 (human prostate adenocarcinoma) cell line; assay type: functional; details: read-out: ED50 (the source's name)
# A498 = test: In vitro cytotoxic activity against A-498 (human kidney carcinoma) cell line; assay type: functional; details: read-out: ED50 (the source's name)
# [1] = Activity in brine shrimp lethality test (BST); assay type: organism-based; details: artemia, in vivo
smiles,measurement,setting,value
COc1cccc2c1C(=O)c1c(O)c3c(c(O)c1C2=O)C[C@@](O)(C(=O)CO)C[C@@H]3O[C@H]1C[C@H](N)[C@H](O)[C@H](C)O1 [DOXORUBICIN],EC50,A549,0.21 ng/mL
same,EC50,HT-29,1.3 ng/mL
same,EC50,MIA PaCa-2,0.18 ng/mL
same,EC50,MCF7,5.8 ng/mL
same,EC50,PC-3,0.24 ng/mL
same,EC50,A498,0.46 ng/mL
CC1=C(CCO)C(C)(C)C[C@@H](O)C1=O,LC50,[1],4900 ng/mL
same,EC50,A549,47000 ng/mL
same,EC50,HT-29,52000 ng/mL
same,EC50,MIA PaCa-2,> 100000 ng/mL
same,EC50,MCF7,46000 ng/mL
same,EC50,PC-3,> 100000 ng/mL
same,EC50,A498,> 100000 ng/mL
